Values quoted from earlier work as cited in patent publication US20060141047A1, “Methods and compositions for delivery of catecholic butanes for treatment of obesity” (priority 2003, published 2006).

Legend:
[1] = test system: HPV-16 transformed immortal mouse epithelial cells (C3); conditions: intratumor injection, separately or together, U.S. Pat. No. 6,417,234 and 6,214,874; cited from earlier work
[2] = test system: mammary carcinoma MX-1 xenograft; conditions: intratumor injection or topical application, athymic mice, U.S. Pat. No. 5,008,294; cited from earlier work

Structure (SMILES) | Suppression of tumor growth [1] | Inhibition of tumor growth [2]
C[C@H](Cc1ccc(OC(=O)CN(C)C)c(OC(=O)CN(C)C)c1)[C@@H](C)Cc1ccc(OC(=O)CN(C)C)c(OC(=O)CN(C)C)c1 [G4N, meso-1,4-bis[3,4-(dimethylaminoacetoxy)phenyl]-(2R,3S)-dimethylbutane] | some evidence of suppression of tumor growth | 
CC(Cc1ccc(O)c(O)c1)C(C)Cc1ccc(O)c(O)c1 (centres unmarked) [NDGA, nordihydroguaiaretic acid] |  | Some evidence of inhibition of tumor growth
